Experiment [1] relates to Cannabis leaf segment explants. Briefly: Somatic embryogenesis in liquid culture. In kind it is cell-based, Cannabis sativa. Particulars: liquid Gamborg B5 medium. How it is done:
Leaf segments from tissue culture grown on the solid medium (1.5 cm diameter and 4-5 cm long) of two Cannabis cultivars (108 and 201) were used. Innermost leaf whorls were cut obliquely (0.5-1.0 cm), injured with sharp scalpel blade in order to achieve callus initiation. Leaf segment, were used as explant for inoculation on MS medium (Murashige and Skoog 1962) supplemented with 2,4-D (4.0 mg/L) and kinetin [Kin] (0.5 mg/L). After 2-3 weeks the cultures were incubated at 25±2 C at 70-80% humidity in dark in liquid Gamborg B5 medium supplemented with 6% sucrose and different plant hormones (Table 1). The media was refreshed every three weeks.
Leaf segments from tissue culture from two different genotypes (108 and 201) have been used as primary explants. The explants were chopped to small pieces (as less as 0.5 mm) and cultivated in liquid Gamborg B5 medium supplemented with 6% sucrose and different plant hormones (Table 1). The media were refreshed every three weeks.
The initiated suspension cultures along with embryos in globular stage (FIGS. 12A-12B) were sub-cultured in the same medium for three weeks. Part of the cultures was transferred to B5 Gamborg media, supplemented with different hormones/chemicals (Table 2) to provoke embryo elongation and further development. The cultures were transferred to fresh media every three weeks.

The test system of a further experiment is Cannabis shoots. Briefly: Rooting (root induction) of shoots. In kind it is cell-based, Cannabis sativa L. The procedure: Shoot was cultivated individually in a tube with root induction (RI) medium composed of half strength MS medium (½MS) supplemented with 100 mg/l myo-inositol, 1 mg/l thiamine-HCl, 90 mg/l phloroglucinol, 2% sucrose (w/v), 0.25% activated charcoal (AC), with or without IBA (at different concentrations (0, 1, 2 mg/l) and 0.8% agar. Soil mixture was moistened by soaking the rooting cylinders in liquid RI medium supplemented with either 0, 1, or 2 mg/l IBA. Each treatment consisted of 10 shoots and results were scored after 4 weeks. Each experiment was repeated three times.
To obtain root induction, different concentrations of IBA were examined. The shoots were placed in a tube containing rooting medium containing 0, 1, or 2 mg/l IBA. Using this method with 2 mg/l IBA, about 85% of the shoots formed roots. However, only low percentage of these plants successfully acclimatized under greenhouse conditions. According to the second approach, shoots were cultured directly in rooting cylinders. After 4 weeks, 100% root formation was achieved, independently of the concentration of auxin used (FIGS. 5A-5C). These plants had better hardening and underwent easier acclimatization in greenhouse conditions. In-vitro clonal propagation, rooting and acclimatized plantlet production was established for 10 different Cannabis cultivars. […]

In a further experiment the test system is Cannabis explants. Briefly: Shoot regeneration in tissue culture with "regeneration premium treatment". The class given is cell-based, Cannabis sativa.

The record followed here is patent US12063902B2, “Method of regenerating cannabis” (The State of Israel, Ministry of Agriculture & Rural …, priority 2018, dated 2024).

Experimental for Cannabis explants: Regeneration from Cannabis plant material using tissue culture, germinated leaves, cotyledons and hypocotyls were used for regeneration. The plants were placed on a petri dish containing 20 ml regeneration media using premium treatment with cuticle nicking enzymes: MS salt mixture, supplemented with 100 mg/l myo-inositol, 1 mg/l thiamine-HCl, 2% sucrose (w/v) at pH 5.7) with and without 5 ml pectic enzymes reaction mixture (0.25 ml 10% enzyme fungal mix of pectin and cutinase 0.25 ml 200 mM Tris-HCl).
Three youngest expanding leaves isolated from 3 to 4 weeks old plants were with and placed on regeneration medium with cuticle nicking enzymes (Murashige and Skoog (MS) medium salt mixture, containing 0.05-5.0 μM thidiazuron, supplemented with 100 mg/l myo-inositol, 1 mg/l thiamine-HCl, 2% sucrose (w/v) at pH 5.7, with 5 ml pectic enzymes reaction mixture (0.25 ml 10% cuticle nicking enzyme in 0.25 ml 200 mM Tris-HCl). The cultures were kept for 7 days in low light intensity (2.5 mmol/m2 s) followed by exposure to high light intensity (40 mmol/m2 s) at 25° C., in a 16/8 h photoperiod. Leaf explants were examined after 14 and 21 days and the percentage of explant producing shoots were calculated. […]

As for `CC(C)=CCNc1ncnc2nc[nH]c12` [2iP], in experiment [1] (gyratory shaker at dark), the “amount of somatic embryos generated” value is listed as “Low amounts of embryos”.
Turning to `O=C(Nc1ccccc1)Nc1ccnc(Cl)c1` [CPPU], in experiment [1] (10 mg/l, 6% sucrose), the somatic embryo initiation result is on record as “essential for the embryo initiation”.
`O=C(O)CCCc1c[nH]c2ccccc12` [IBA, indol-3-butyric acid]: the root formation with Cannabis shoots (shoots cultured directly in rooting cylinders, after 4 weeks, independently of the concentration of auxin (0, 1, 2 mg/l IBA)) is given as 100%. Besides, the shoots formed roots result with Cannabis shoots (tube containing rooting medium, 2 mg/l IBA) was “about 85%”.
In the case of `C=C1C[C@]23C[C@@]1(O)CC[C@H]2[C@@]12C=C[C@H](O)[C@@](C)(C(=O)O1)[C@H]2[C@@H]3C(=O)O` [gibberellic acid], the shoot growth entry in the experiment with Cannabis explants (7.0 μM gibberellic acid added to medium containing 0.5 μM thidiazuron) is listed as “slightly increased shoot growth”.
With `O=C(Nc1ccccc1)Nc1cnns1` [thidiazuron], in the experiment with Cannabis explants (0.5 μM thidiazuron, media treatment with cuticle nicking enzymes), the “quality and quantity of regenerates” value was “better”.
